Earlier results in patent US20140080712A1, “COMPOSITIONS AND METHODS FOR DOUBLE ENCAPSULATION OF A VOLATILE COMPOUND” (AgroFresh Inc., priority 2012, published 2014).

Tested on: ethylene
Conditions: freshness management

Structure (SMILES): CC1=CC1 [Sample 1-MCP, 1-methylcyclopropene]
- concentration effective in blocking ethylene: ~100 ppb
